Experimental findings from ChEMBL document CHEMBL1139065, “Pyrazole-based factor Xa inhibitors containing N-arylpiperidinyl P4 residues” (Bioorg Med Chem Lett, 2007) are described below.

One series addresses Coagulation factor X (Homo sapiens, UniProt P00742). The series is described as follows: Inhibition of human factor 10a.
The next series in a line: in vivo. Particulars: dog, po, 0.2 mg/kg.
Series [1] in a line: Half life in dog at 0.2 mg/kg, po. Particulars: in vivo.
Series [2] can be described thus: Clearance in dog at 0.5 mg/kg, iv. Particulars: in vivo.
Series [3] is described as follows: Apparent permeability across Caco-2 cells. Particulars: human. A general note: Caco-2 monolayers are a common model of the intestinal barrier.
In a further series the test system is Plasma. Description: Anticoagulant potency in human plasma assessed as concentration required to double prothrombin time. The class given is functional.
The nature of series [4]: Metabolic stability in human liver microsomes assessed as intrinsic clearance. The class given is ADME, Microsome.
The species named for another series is Oryctolagus cuniculus. Description: Antithrombotic activity against rabbit arterio-venous shunt thrombosis model. The class given is functional, organism-based.
For another series, the target named is Trypsin (Homo sapiens, UniProt P07477+P07478+P35030). The series is described as follows: Inhibition of trypsin. The class given is protein assay.
Series [5] in a line: Half life in human liver microsomes. (Microsomes from liver hold many membrane-bound enzymes, among them those of drug oxidation.)
The target in a further series is Prothrombin (Homo sapiens, UniProt P00734). Description: Inhibition of thrombin.

The Ki is a measure of affinity in units of concentration, obtained from inhibition or displacement. By bioavailability is commonly meant the share of a dose that reaches the circulation, judged against a reference dose that is usually intravenous. Low readings indicate little systemic uptake, high ones much systemic uptake. The term half-life denotes how long it takes for the measured level to halve. A higher half-life goes with slow loss. What is called clearance is the rate of elimination divided by the concentration. A lower clearance goes with inefficient removal. One may read the Papp as a coefficient for how fast a substance crosses the barrier. The term microsomal CLint denotes the rate of metabolic loss divided by the concentration. By EC50 is commonly meant the concentration at which the effect is half-maximal.

Sequence of Coagulation factor X (P00742 41-179 limits assumed): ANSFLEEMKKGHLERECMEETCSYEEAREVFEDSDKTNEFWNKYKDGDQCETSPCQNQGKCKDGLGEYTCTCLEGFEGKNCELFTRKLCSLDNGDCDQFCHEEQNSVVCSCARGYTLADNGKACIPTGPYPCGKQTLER
Sequence of Coagulation factor X (P00742 235-488 limits assumed): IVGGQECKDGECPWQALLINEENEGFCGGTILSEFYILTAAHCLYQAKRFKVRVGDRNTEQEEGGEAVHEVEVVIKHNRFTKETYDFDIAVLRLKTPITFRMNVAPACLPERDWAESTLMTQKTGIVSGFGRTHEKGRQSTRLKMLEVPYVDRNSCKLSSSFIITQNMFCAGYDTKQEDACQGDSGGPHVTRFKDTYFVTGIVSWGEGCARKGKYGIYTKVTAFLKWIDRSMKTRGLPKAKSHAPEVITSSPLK

In turn, `COc1ccc(-n2nc(C(F)(F)F)cc2C(=O)NC2CCN(c3ccccc3CN3CCOCC3)CC2)cc1` came in with a Ki at Coagulation factor X of 6.6 nM.
At Coagulation factor X, `COc1ccc(-n2nc(C(N)=O)c3c2C(=O)N(C2CCN(c4ccccc4CN(C)C(C)=O)CC2)CC3)cc1` displayed a Ki of 23 nM.
`CCN(C)Cc1ccccc1N1CCC(NC(=O)c2cc(C(F)(F)F)nn2-c2ccc3onc(N)c3c2)CC1` came in with a bioavailability in the series “in vivo” of 23%. The half-life in series [1] is 2.5 h. Further, the clearance in [2] is 71.7 mL/min/kg. In addition, the Ki on Coagulation factor X stood at 0.7 nM. In addition, the Papp in [3] came to 2.7 ×10⁻⁶ cm/s. Also, the PT with Plasma was 1.1 µM. The microsomal CLint in series [4] turned out to be 29 µL/min/mg.
As to `COc1ccc(-n2nc(C(F)(F)F)cc2C(=O)NC2CCN(c3ccccc3CN(C)C)CC2)cc1`, affinity at Coagulation factor X was put at a Ki of 8.8 nM.
Molecule `CS(=O)(=O)c1ccccc1[C@H]1CC[C@@H](NC(=O)c2cc(C(F)(F)F)nn2-c2cccc(CN)c2)CC1` came in with a Ki at Coagulation factor X of 2000 nM.
At Coagulation factor X, `COc1ccc(-n2nc(C(N)=O)c3c2C(=O)N(C2CCN(c4ccccc4CN4CCCC4)CC2)CC3)cc1` gave a Ki of 0.26 nM. Besides, the PT with Plasma was determined as 1.2 µM.
For `CNCc1ccccc1N1CCC(N2CCc3c(C(N)=O)nn(-c4ccc(OC)cc4)c3C2=O)CC1` the same measures were 1 nM and 1.8 µM.
At Coagulation factor X, `CS(=O)(=O)c1ccccc1N1CCC(NC(=O)c2cc(C(F)(F)F)nn2-c2ccccc2CN)CC1` yielded a Ki of 2.4 nM.
The molecule `Nc1noc2ccc(-n3nc(C(F)(F)F)cc3C(=O)NC3CCN(c4ccccc4CN4CCC[C@H]4O)CC3)cc12` showed a clearance in series [2] of 36.7 mL/min/kg. At Coagulation factor X, the Ki was 0.73 nM. The apparent permeability (Papp) in [3] was 0.2 ×10⁻⁶ cm/s. Further, the PT in the series on Plasma was determined as 0.83 µM. Moreover, in series [4], the microsomal CLint was determined as 40 µL/min/mg.
The molecule `CNCc1ccccc1N1CCC(NC(=O)c2cc(C(F)(F)F)nn2-c2ccc3onc(N)c3c2)CC1` had a bioavailability in “in vivo” of 1.7%. In [1], this molecule had a half-life of 0.3 h. Besides, in series [2], the clearance is 107 mL/min/kg. This molecule gave a Ki on Coagulation factor X of 0.67 nM. For the same molecule, in series [3], the Papp was 0.1 ×10⁻⁶ cm/s. For the same molecule, the PT in the series on Plasma was 1.2 µM.
In turn, `COc1ccc(-n2nc(C(N)=O)c3c2C(=O)N(C2CCN(c4ccccc4CN4CCOCC4)CC2)CC3)cc1` displayed a Ki on Coagulation factor X of 0.57 nM. In addition, the PT in the series with Plasma is 3.5 µM.
In turn, `CS(=O)(=O)c1ccccc1N1CCC(NC(=O)c2cc(C(F)(F)F)nn2-c2ccc3onc(N)c3c2)CC1` had a bioavailability in the series “in vivo” of 24%. This molecule showed a half-life in series [1] of 1.3 h. For the same molecule, in series [2], the clearance was 18.3 mL/min/kg. For the same molecule, the Ki on Coagulation factor X turned out to be 1.7 nM. For the same molecule, the Papp in series [3] is 1.7 ×10⁻⁶ cm/s. Besides, the PT with Plasma came out at 2.8 µM. Moreover, the microsomal CLint in series [4] turned out to be 51 µL/min/mg.
Molecule `COc1ccc(-n2nc(C(N)=O)c3c2C(=O)N(C2CCN(c4ccccc4S(N)(=O)=O)CC2)CC3)cc1` came in with a Ki on Coagulation factor X of 3.9 nM.
`CCN(CC)Cc1ccccc1N1CCC(N2CCc3c(C(N)=O)nn(-c4ccc(OC)cc4)c3C2=O)CC1` displayed an inhibition constant Ki at Coagulation factor X of 0.26 nM. Moreover, the PT in the series with Plasma is 1.5 µM.
For `Nc1noc2ccc(-n3nc(C(F)(F)F)cc3C(=O)NC3CCN(c4ccccc4CN4CCCC4)CC3)cc12`, in the series “in vivo”, the bioavailability was found to be 26%. In addition, in the series listed under Oryctolagus cuniculus, the EC50 came out at 740 nM. Moreover, the half-life in series [1] was 5 h. In addition, the clearance in series [2] was 48.3 mL/min/kg. For the same molecule, the affinity on Coagulation factor X corresponds to a Ki of 0.61 nM. The Papp in series [3] amounted to 1.3 ×10⁻⁶ cm/s. Besides, the PT with Plasma came out at 0.84 µM. For the same molecule, the microsomal CLint in [4] was found to be 29 µL/min/mg.
Molecule `COc1ccc(-n2nc(C(N)=O)c3c2C(=O)N(C2CCN(c4ccccc4CN(C)C)CC2)CC3)cc1` displayed an inhibition constant Ki at Coagulation factor X of 0.41 nM. Further, in the series on Plasma, the PT was found to be 1 µM.
As for `CS(=O)(=O)c1ccccc1N1CCC(NC(=O)c2cc(C(F)(F)F)nn2-c2cccc(CN)c2)CC1`, the Ki at Coagulation factor X was 4.9 nM.
`COc1ccc(-n2nc(C(N)=O)c3c2C(=O)N(C2CCN(c4ccccc4CN4CCC[C@@H]4O)CC2)CC3)cc1` had a Ki on Coagulation factor X of 0.87 nM. For the same molecule, in the series on Plasma, the PT was found to be 2.5 µM.
The molecule `COc1ccc(-n2nc(C(F)(F)F)cc2C(=O)NC2CCN(c3ccccc3CN3CCCC3)CC2)cc1` displayed a Ki on Coagulation factor X of 29 nM.
`CS(=O)(=O)c1ccccc1[C@H]1CC[C@H](NC(=O)c2cc(C(F)(F)F)nn2-c2cccc(CN)c2)CC1` showed a Ki on Coagulation factor X of 5.7 nM.
On the same count and under the same terms, then `CS(=O)(=O)c1ccccc1N1CCC(NC(=O)c2cc(C(F)(F)F)nn2-c2ccc3onc(N)c3c2)CC1=O` (configuration not stated), with 92 nM; and `CS(=O)(=O)c1ccccc1C1=CCC(NC(=O)c2cc(C(F)(F)F)nn2-c2cccc(CN)c2)CC1` (configuration not stated), with 3 nM; and `COc1ccc(-n2nc(C(F)(F)F)cc2C(=O)NC2CCN(c3ccccc3S(C)(=O)=O)CC2)cc1`, with 14 nM.
Consider `COc1ccc(-n2nc(C(N)=O)c3c2C(=O)N(C2CCN(c4ccccc4CN(C)S(C)(=O)=O)CC2)CC3)cc1`, for which the Ki on Coagulation factor X came out at 81 nM.
Molecule `COc1ccc(-n2nc(C(N)=O)c3c2C(=O)N(C2CCN(c4ccccc4S(C)(=O)=O)CC2)CC3)cc1` yielded a bioavailability in “in vivo” of 78%. In addition, the Ki on Trypsin is over 20000 nM; at Coagulation factor X it was 0.35 nM; on Prothrombin, 1200 nM. Moreover, the half-life in series [5] is 1.95 h; in [1], 0.8 h. The molecule also had a clearance in series [2] of 3.83 mL/min/kg. The Papp in [3] was 1.5 ×10⁻⁶ cm/s. Also, the PT with Plasma came out at 4.2 µM.
